Test results published in patent US12497359B2, “Acrylamide derivatives” (NRG Therapeutics Ltd, priority 2020, dated 2025).
Values after ≈ are worked out from the molar mass of the structure shown.

Legend:
mPTP [1] = assay: mPTP activity assay in isolated rat liver mitochondria (Ca2+ retention, Fluo5N, FLIPR); assay type: biochemical; details: isolated rat liver mitochondria; average value from multiple experiments (n ≥ 2)
Text: Pharmacological inhibition or modulation of the mPTP can be measured in well characterised ‘Ca^2+ retention’ assays performed in isolated mitochondria. In vitro, isolated mitochondria rapidly sequester exogenous Ca^2+ until the intramitochondrial Ca^2+ concentration reaches the threshold for mPTP activation. Once the pore is activated, mitochondrial integrity is compromised and the stored Ca^2+ is released. The distribution of Ca^2+ between extra- and intra-mitochondrial compartments can be measured in real time with the use of membrane-impermeant Ca^2+ sensitive fluorescent dyes. Depending on the configuration of the assay, inhibition or modulation of the mPTP either delays the opening of the pore or increases the concentration of Ca^2+ required to induce mPTP opening.
mPTP activity was measured in mitochondria freshly isolated from female Sprague Dawley (250 to 300 gram) rat livers using the following method. Cervical dislocation was performed on the rat. The liver was then perfused in-situ with ˜40 ml cold Dulbecco's Phosphate Buffered Saline (DPBS) prior to dissection and transferred into 30 ml Isolation Buffer (250 mM Sucrose, 10 mM KCl, 1 mM EGTA, 1 mM EDTA, 25 mM HEPES, adjusted to pH 7.5 with 1 M NaOH). Each lobe of the liver was then removed from the buffer, minced using tweezers and a scalpel into ˜5 mm pieces then transferred into a 50 ml Potterton dounce homogenization tube on ice containing 30 ml ice-cold centrifugation buffer (300 mM Trehalose, 25 mM HEPES, 1 mM EGTA, 1 mM EDTA, 10 mM KCl, adjusted to pH 7.5 with 1 M NaOH and supplemented with 0.1% bovine serum albumin (BSA) and complete protease inhibitor cocktail (one tablet of inhibitor per 50 mls of buffer). Homogenisation was carried out using a teflon pestle at 1800 rpm. The slurry was centrifuged at 800 g for 10 min at 4° C., then the supernatant centrifuged at 10,000 g for 10 min. The pellet was washed once with FLIPR assay buffer (75 mM Mannitol, 25 mM Sucrose, 5 mM Potassium Phosphate Monobasic, 20 mM Tris base, 100 mM KCl, 0.1% BSA adjusted to pH 7.4 with 5 M HCl) centrifuged again, then resuspended in FLIPR assay buffer to a concentration of 8.8 mg/ml protein.
Test compounds (10 mM stock in DMSO) were serially diluted in DMSO in half log steps to generate 10 test concentrations (final concentrations in assay 30 μM to 1 nM). An intermediate dilution of 5 μl DMSO samples into 247 μl FLIPR assay buffer was carried out prior to transfer of 5 μl into duplicate wells of a 384 well polypropylene assay plate. Control wells were 0.5% (v/v) DMSO and 5 μM cyclosporin A.
A stock mitochondria/Fluo5N assay solution was prepared in 5.6 ml FLIPR assay buffer (at RT) supplemented with succinate disodium salt (10 mM), rotenone (1 μM), Fluo5N pentapotassium salt (2 μM) and 1 ml mitochondria suspension, then transferred (15 μl) into the assay plate containing test compounds and incubated for 10 min at RT. Assay plates were then transferred to a FLIPR Tetra plate reader (Molecular Devices). Dye fluorescence was then measured every 3 sec for a total of 10 min. After 12 sec, a 2.5 μl bolus of CaCl2 (75 μM) was added from a source plate containing 675 μM CaCl2 in FLIPR assay buffer. IC50 values for test compounds were calculated using the fluorescence value collected at the 10 min timepoint with % inhibition calculated using the DMSO control and cyclosporin A values as […] respectively.

mPTP [2] = assay: mPTP activity assay in isolated rat brain mitochondria; assay type: biochemical; details: isolated rat brain mitochondria
Protocol: MPTP activity was measured in brain mitochondria freshly isolated from female Sprague Dawley (250 to 300 gram) rats. Anaesthetised rats were perfused in-situ with ˜40 ml cold Dulbecco's Phosphate Buffered Saline (DPBS), then brains dissected and transferred into 30 ml Isolation Buffer (225 mM mannitol, 75 mM sucrose, 1 mM EGTA, adjusted to pH 7.4 with 1 M NaOH). The brain was minced using tweezers and a scalpel into ˜5 mm pieces then transferred into a 50 ml Potterton Dounce homogenization tube on ice containing 10 ml ice-cold isolation buffer (as above with addition of Complete Protease inhibitor; 1 tablet per 50 ml buffer). Homogenisation was carried out using a teflon pestle at 1800 rpm. The slurry was centrifuged at 2000 g for 10 min at 4° C., then the supernatant centrifuged at 12,000 g for 9 min. The pellet was resuspended with a dounce homogeniser in isolation buffer as above but with the addition of 0.02% digitonin, centrifuged at 12,000 g for 11 min and finally resuspended in 5 ml modified isolation buffer (as above but with EGTA reduced to 0.1 mM).
Test compounds were prepared in 384 well polypropylene assay plates as described above for the liver mitochondria assay. A stock mitochondria/Fluo5N assay solution was prepared in 5.6 ml assay buffer (120 mM mannitol, 40 mM MOPS, 5 mM KH2PO4, 60 mM KCl, 10 mM pyruvate, 2 mM malate, 2 mM MgCl2, 20 μM ADP, 1.26 μM oligomycin A, adjusted to pH 7.4) supplemented with Fluo5N pentapotassium salt (2 μM) and 1 ml mitochondria suspension, then transferred (15 μl) into the assay plate containing test compounds and incubated for 10 min at RT. Assay plates were then transferred to a FLIPR Tetra plate reader (Molecular Devices). Dye fluorescence was then measured every 3 sec for a total of 10 min. After 12 sec, a 2.5 μl bolus of Ca2+(75 μM) was added from a source plate containing 675 μM CaCl2 in FLIPR assay buffer. IC50 values for test compounds were calculated using the fluorescence value collected at the 10 min timepoint with % inhibition calculated using the DMSO control and cyclosporin A values at […].

PBS solubility = assay type: physicochemical; details: aqueous buffer, kinetic from dmso stock; PBS pH 7.4, 2 hr at 25° C.
Protocol: (§1) Test compounds were prepared as 10 mM stocks in DMSO and 15 μl samples transferred in duplicate into 1.5 mL glass flat bottom vials (BioTech Solutions). Fasted state simulated intestinal fluid (FaSSIF) or PBS (pH 7.4) was added to each vial to final volume of 500 μl. One PTFE encapsulated stir stick (V&P Scientific) was placed in each vial before sealing with PTFE/SIL plugs (BioTech Solutions). Vials were shaken at 1100 rpm for 2 hr at 25° C. Samples were then filtered through MultiScreen Solvinert filter plates (Millipore) via vacuum filtration. Aliquots of filtrate (5 μl) plus 5 μl DMSO were diluted in 490 μl 50% acetonitrile in water containing internal standard. The filtrate was analysed and quantified against a standard of known concentration using LC-MS/MS. Solubility values of the test compound and control compound were calculated as follows: [Sample]=(Area ratiosample*INJ VOL STD*DFsample*[STD])/(Area ratio STD*INJ VOLsample).

FaSSIF solubility = assay type: physicochemical; details: kinetic from dmso stock, Fasted state simulated intestinal fluid, 2 hr at 25° C.
Protocol: as §1

[3] = Hepatocyte clearance assay, rat; assay type: in vitro ADME; details: cryopreserved primary rat hepatocytes, average value from two experiments, read-out: Rat heps intrinsic clearance (CLint)
Protocol: (§2) In vitro clearance studies were performed in primary rat and human hepatocytes (BioIVT). Vials of cryopreserved rat or human hepatocytes were thawed in a 37° C. water bath for 2 min. Cells were transferred into thawing medium (Williams' Medium E containing 30% Percoll, 1× GlutaMAX-1, 15 mM HEPES, 5% fetal bovine serum (FBS), 4 μg/ml insulin, 1 μM dexamethasone), centrifuged at 100 g for 10 min then resuspended in culture medium (Leibovitz's L-15 Medium) at a concentration of 0.5×10^6 viable cells/mL (number of viable cells assessed using AO/PI staining). Hepatocytes (198 μL) were transferred into wells of a 96-well non-coated plate and placed in a 37° C. incubator for 10 min. Test compound solutions were prepared from 10 mM stocks in DMSO, diluted to 100 μM in 50% (v/v in water) acetonitrile. Test compound samples (2 μl) were added to each well of hepatocytes and incubated at 37° C. Samples (25 μl) were collected at t=0, 15, 30, […] and 120 min, mixed with 6 volumes (150 μl) of acetonitrile containing internal standard (100 nM alprazolam, 200 nM caffeine and 100 nM tolbutamide), vortexed for 5 min and centrifuged for 45 min at 3220 g. An aliquot of supernatant (100 μL) was diluted with 100 μL ultra-pure water, and the mixture was used for LC/MS/MS analysis. All incubations were performed in duplicate. Peak areas were determined from extracted ion chromatograms. The slope value, k, was determined by linear regression of the natural logarithm of the remaining percentage of the parent drug vs. incubation time curve. The in vitro half-life (in vitro t1/2) was determined from the slope value: in vitro t1/2=0.693/k. Conversion of the in vitro t1/2 (in min) into the in vitro intrinsic clearance (in vitro CLint, in μL/min/1×10^6 cells) was done using the following equation (mean of duplicate determinations): • in vitro CLint=kV/N • V=incubation volume (0.2 mL) • N=number of hepatocytes per well (0.1×10^6 cells). Microsomal Clearance Assay

[4] = Hepatocyte clearance assay, human; assay type: in vitro ADME; details: cryopreserved primary human hepatocytes, average value from two experiments, read-out: Human heps intrinsic clearance (CLint)
Protocol: as §2

mPTP Rat liver pIC50* (mPTP [1])	mPTP Rat brain pIC50 (mPTP [2])	solubility at 2 h (PBS solubility)	solubility at 2 h (FaSSIF solubility)	hepatocyte CLint at 1 µM [3]	hepatocyte CLint at 1 µM [4]	Compound
7.6	7.6	1.2 µM (≈ 0.35 µg/mL)	3 µM (≈ 0.874 µg/mL)	–	–	Cc1cccc(C)c1NC(=O)/C=C/c1ccc2cn[nH]c2c1 [Example 24, (E)-N-(2,6-dimethylphenyl)-3-(1H-indazol-6-yl)acrylamide]
5.8	–	–	296 µM (≈ 108 µg/mL)	64 µL/min/1e6 cells	31 µL/min/1e6 cells	O=C(/C=C/c1ccc2cn[nH]c2c1)Nc1ccccc1CCN1CC(F)C1 [Example 32, (E)-N-(2-(2-(3-fluoroazetidin-1-yl)ethyl)phenyl)-3-(1H-indazol-6-yl)acrylamide]
7.5	–	–	80 µM (≈ 26.7 µg/mL)	25 µL/min/1e6 cells	13 µL/min/1e6 cells	CO[C@H]1Cc2ccccc2[C@@H]1NC(=O)/C=C/c1ccc2cn[nH]c2c1 [Example 37, (E)-3-(1H-indazol-6-yl)-N-((1S,2S)-2-methoxy-2,3-dihydro-1H-inden-1-yl)acrylamide]
